Experimental data: ChEMBL document CHEMBL1201862, “PubChem BioAssay data set” (2004)
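How tested: cells in 96-well plates exposed to compound for 48 hours at five concentrations. The concentration for 50% growth inhibition is given as GI50.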 The source made the active and inactive calls. Rule as the data show it: active = GI50 up to about 1.1 µM and inactive = higher.

Key:
Assay in all cases: DTP human tumour cell line panel, 48 h
NCI-H23 = system: NCI-H23
UACC-257 = system: UACC-257
786-0 = system: 786-0
A498 = system: A498
NCI/ADR-RES = system: NCI/ADR-RES
Malme-3M = system: Malme-3M
CAKI-1 = system: CAKI-1
SF-295 = system: SF-295
OVCAR-8 = system: OVCAR-8
HCC 2998 = system: HCC 2998
OVCAR-3 = system: OVCAR-3
A549 = system: A549
SR = system: SR
SK-MEL-2 = system: SK-MEL-2
DU-145 = system: DU-145
UO-31 = system: UO-31
HL-60 = system: HL-60
BT-549 = system: BT-549
SF-268 = system: SF-268

Compound	GI50 (NCI-H23)	GI50 (UACC-257)	GI50 (786-0)	GI50 (A498)	GI50 (NCI/ADR-RES)	GI50 (Malme-3M)	GI50 (CAKI-1)	GI50 (SF-295)	GI50 (OVCAR-8)	GI50 (HCC 2998)	GI50 (OVCAR-3)	GI50 (A549)	GI50 (SR)	GI50 (SK-MEL-2)	GI50 (DU-145)	GI50 (UO-31)	GI50 (HL-60)	GI50 (BT-549)	GI50 (SF-268)
CC(C)=CCC[C@@H](C)C1=C(Nc2ccccc2)C(=O)C(C)=C(O)C1=O	2.82 µM (inactive)	5.53 µM (inactive)	4.75 µM (inactive)	3.34 µM (inactive)	0.815 µM (active)	4.2 µM (inactive)	2.82 µM (inactive)	1.85 µM (inactive)	2.1 µM (inactive)	5.92 µM (inactive)	2.21 µM (inactive)	2.56 µM (inactive)	0.631 µM (active)	2.52 µM (inactive)	4.59 µM (inactive)	3.77 µM (inactive)	0.303 µM (active)	3.67 µM (inactive)	1.73 µM (inactive)
CCOC(=O)/C=C(\C(=O)OCC)n1ccc(=O)[nH]c1=O	16.7 µM (inactive)	4.72 µM (inactive)	4.85 µM (inactive)	19.1 µM (inactive)	26.2 µM (inactive)	10.2 µM (inactive)	1.91 µM (inactive)	> 60.8 µM (inactive)	24 µM (inactive)	22.4 µM (inactive)	13.2 µM (inactive)	29.8 µM (inactive)	10.4 µM (inactive)	23.4 µM (inactive)	31.4 µM (inactive)	16.9 µM (inactive)	2.44 µM (inactive)	16.7 µM (inactive)	20 µM (inactive)
Oc1cccc(-c2cn3cc(Cl)ccc3n2)c1	51.8 µM (inactive)	25.6 µM (inactive)	66.2 µM (inactive)	45.3 µM (inactive)	34.5 µM (inactive)	51.6 µM (inactive)	70 µM (inactive)	39.4 µM (inactive)	31.4 µM (inactive)	38.4 µM (inactive)	31.7 µM (inactive)	51.5 µM (inactive)	47.2 µM (inactive)	38.8 µM (inactive)	31 µM (inactive)	36.7 µM (inactive)	5.4 µM (inactive)	51.1 µM (inactive)	55.1 µM (inactive)
O=S(=O)(CC(Cl)c1ccccc1)c1nc2ccccc2s1 (stereo unspecified)	8.38 µM (inactive)	7.8 µM (inactive)	6.95 µM (inactive)	20 µM (inactive)	10.7 µM (inactive)	9.16 µM (inactive)	2.24 µM (inactive)	17.9 µM (inactive)	7.96 µM (inactive)	17.5 µM (inactive)	8.53 µM (inactive)	19.5 µM (inactive)	1.67 µM (inactive)	17.8 µM (inactive)	16.5 µM (inactive)	15.4 µM (inactive)	2.11 µM (inactive)	2.98 µM (inactive)	13.6 µM (inactive)
CC(C)(C)C1CCC2c3c([nH]c4ccccc34)C3C(=O)N(c4ccccc4Cl)C(=O)C3C2C1 (stereo unspecified)	14.4 µM (inactive)	31.6 µM (inactive)	10.3 µM (inactive)	17.9 µM (inactive)	15.3 µM (inactive)	17.3 µM (inactive)	9.12 µM (inactive)	19.7 µM (inactive)	16 µM (inactive)	3.41 µM (inactive)	15.6 µM (inactive)	9.2 µM (inactive)	13.4 µM (inactive)	17.5 µM (inactive)	15.1 µM (inactive)	14.5 µM (inactive)	12.6 µM (inactive)	23.8 µM (inactive)	14.4 µM (inactive)
CSC(=S)N(C)C [CYSTOGON]	> 100 µM (inactive)	> 100 µM (inactive)	> 100 µM (inactive)	> 100 µM (inactive)	> 100 µM (inactive)	> 100 µM (inactive)	> 100 µM (inactive)	> 100 µM (inactive)	> 100 µM (inactive)		> 100 µM (inactive)	> 100 µM (inactive)	> 100 µM (inactive)	> 100 µM (inactive)	> 100 µM (inactive)	> 100 µM (inactive)	> 100 µM (inactive)	> 100 µM (inactive)	> 100 µM (inactive)
CN(C)c1ccccc1CN1CCCN(Cc2ccccc2N(C)C)C1c1ccncc1	18.3 µM (inactive)	2.42 µM (inactive)	13.1 µM (inactive)	12.4 µM (inactive)	24.1 µM (inactive)	10.4 µM (inactive)	16.7 µM (inactive)	15.3 µM (inactive)	15.4 µM (inactive)		14.6 µM (inactive)	17.4 µM (inactive)	4.91 µM (inactive)	17.8 µM (inactive)	16.9 µM (inactive)	5.02 µM (inactive)	13 µM (inactive)	16.9 µM (inactive)	18.8 µM (inactive)
N#Cc1c(-c2ccccc2)cc(-c2ccc(Cl)cc2)[nH]c1=S	4.06 µM (inactive)		53.3 µM (inactive)	22.6 µM (inactive)	39.4 µM (inactive)	27 µM (inactive)	51.4 µM (inactive)	27.1 µM (inactive)	43.6 µM (inactive)	31.9 µM (inactive)	38.8 µM (inactive)	38.4 µM (inactive)	23.8 µM (inactive)		53.6 µM (inactive)	24.8 µM (inactive)	45.6 µM (inactive)	41.5 µM (inactive)	41.3 µM (inactive)
NC(=O)NC(=O)c1cccc(NC(=O)CCl)c1	0.953 µM (active)	1.19 µM (inactive)	1.06 µM (active)	2.55 µM (inactive)	1.65 µM (inactive)	5.22 µM (inactive)	1.39 µM (inactive)	2.79 µM (inactive)	2.22 µM (inactive)	0.764 µM (active)	0.223 µM (active)		0.124 µM (active)	2.38 µM (inactive)	1.36 µM (inactive)	0.168 µM (active)	0.569 µM (active)	1.41 µM (inactive)	1.91 µM (inactive)
NNC1=NC(=O)NC(=O)C1	> 100 µM (inactive)	> 100 µM (inactive)	> 100 µM (inactive)	> 100 µM (inactive)	> 100 µM (inactive)	> 100 µM (inactive)	> 100 µM (inactive)	> 100 µM (inactive)	> 100 µM (inactive)		> 100 µM (inactive)	> 100 µM (inactive)	> 100 µM (inactive)	> 100 µM (inactive)	> 100 µM (inactive)	> 100 µM (inactive)	> 100 µM (inactive)	> 100 µM (inactive)	> 100 µM (inactive)
O=C(c1ccccc1)N(CCCCNC(=O)C(F)(F)F)CCCNC(=O)C(F)(F)F	> 100 µM (inactive)	> 100 µM (inactive)	> 100 µM (inactive)	> 100 µM (inactive)	> 100 µM (inactive)	> 100 µM (inactive)	> 100 µM (inactive)	> 100 µM (inactive)	> 100 µM (inactive)	> 100 µM (inactive)		> 100 µM (inactive)	0.94 µM (active)		> 100 µM (inactive)	> 100 µM (inactive)	> 100 µM (inactive)	> 100 µM (inactive)	> 100 µM (inactive)
CC(C)(O)[C@@H]1CC[C@](C)(C2[C@@H](O)C[C@@]3(C)C4C[C@H](OC5OCC(O)C(O)C5O)[C@H]5C(C)(C)[C@@H](OC6OCC(O)C(O)C6OC6OCC(O)C(O)C6O)CC[C@@]56C[C@@]46CC[C@]23C)O1 (stereo partly specified)	> 100 µM (inactive)		> 100 µM (inactive)	> 100 µM (inactive)	> 100 µM (inactive)		> 100 µM (inactive)	> 100 µM (inactive)	> 100 µM (inactive)	> 100 µM (inactive)	> 100 µM (inactive)	> 100 µM (inactive)	> 100 µM (inactive)	> 100 µM (inactive)	> 100 µM (inactive)	> 100 µM (inactive)	> 100 µM (inactive)	> 100 µM (inactive)	> 100 µM (inactive)
COC(=O)C1(C(=O)OC)N=C(C)OC1c1ccoc1 (stereo unspecified)	> 100 µM (inactive)	> 100 µM (inactive)	> 100 µM (inactive)	> 100 µM (inactive)	> 100 µM (inactive)		> 100 µM (inactive)	> 100 µM (inactive)	> 100 µM (inactive)	> 100 µM (inactive)	> 100 µM (inactive)	> 100 µM (inactive)	> 100 µM (inactive)	> 100 µM (inactive)	> 100 µM (inactive)	> 100 µM (inactive)	> 100 µM (inactive)	> 100 µM (inactive)	
N#Cc1nn(C(N)=O)c(N)c1C#N	> 100 µM (inactive)	> 100 µM (inactive)	> 100 µM (inactive)	> 100 µM (inactive)	> 100 µM (inactive)		> 100 µM (inactive)	> 100 µM (inactive)	> 100 µM (inactive)	> 100 µM (inactive)	> 100 µM (inactive)	> 100 µM (inactive)	> 100 µM (inactive)	> 100 µM (inactive)	> 100 µM (inactive)	> 100 µM (inactive)	> 100 µM (inactive)	> 100 µM (inactive)	> 100 µM (inactive)
CC(C)C(Br)CCC1=CCC(Br)(Br)C1 (stereo unspecified)	9.1 µM (inactive)	14.5 µM (inactive)	15.7 µM (inactive)	18.8 µM (inactive)	22.6 µM (inactive)	14.6 µM (inactive)	17.2 µM (inactive)	17 µM (inactive)		14.9 µM (inactive)	13 µM (inactive)	17.9 µM (inactive)	2.62 µM (inactive)	5.77 µM (inactive)	18.4 µM (inactive)	10.2 µM (inactive)	3.4 µM (inactive)	20.2 µM (inactive)	16.8 µM (inactive)
